In PMC8587714, “Preliminary Assessment of the Anti-inflammatory Activity of New Structural Honokiol Analogs with a 4′-O-(2-Fluoroethyl) Moiety and the Potential of Their ^18F-Labeled Derivatives for Neuroinflammation Imaging” (Molecules, 2021):
Where two headings read alike, the source gives them in different places. Values belong to the compound of their own block, whether it stands above or below them.

Tests used:
[1] = test system: IL-6 and TNF-α; assay: Cytokine assay (ELISA) in LPS-induced neuroinflammation in mice; assay type: in vivo, C57BL/6 mice; conditions: 10 mg/kg for 3 days, 72 h after LPS
[2] = test system: lipid peroxidation products (TBARS); assay: TBARS assay in brain of LPS-injected mice; assay type: in vivo, C57BL/6 mice; conditions: 10 mg/kg for 3 days, 72 h after LPS
Excerpt: All experiments adhered to regulations of DIRECTIVE 2010/63/EU on the protection of laboratory animals. The procedures with animals were reviewed and approved by the Ethics Committee of Smorodintsev Research Institute of Influenza. […]. The animals were housed in a climate-controlled room with a 12/12-h light cycle. The subjects had ad libitum access to food and water during housing. Neuroinflammation was modeled in animals by intraperitoneal (i.p.) single injection of LPS from Escherichia coli saline O111:B4 (Sigma-Aldrich) at a dose of 2 mg/kg.
In total, 7 groups of 5 individuals in each were studied, including a group of intact animals. […]. The blood collected after decapitation was left in tubes with a serum separator for 30 min, then centrifuged at 611 g (3000 rpm) and 4 °C for 10 min. Blood and brain samples were frozen and stored at −20 °C.
The brain was weighed and 2 mL of ice-cold endotoxin-free PBS containing 0.1% non-ionic detergent Triton X-100 was added to the tissue samples left under ice for 10 min until homogenized with a tissue disruptor. […]
The supernatant diluted with buffer 1:10 was used for analysis. […] Each sample (150 μL) was loaded in duplicate into a 96-well plate, and the absorbance was measured at 535 nm on an EPOCH2TC.

[3] = target: T1, human recombinant COX-1 (Homo sapiens, UniProt P23219); assay: COX (human) Inhibitor Screening Assay kit (EIA), COX-1
T1 sequence (P23219 24-599): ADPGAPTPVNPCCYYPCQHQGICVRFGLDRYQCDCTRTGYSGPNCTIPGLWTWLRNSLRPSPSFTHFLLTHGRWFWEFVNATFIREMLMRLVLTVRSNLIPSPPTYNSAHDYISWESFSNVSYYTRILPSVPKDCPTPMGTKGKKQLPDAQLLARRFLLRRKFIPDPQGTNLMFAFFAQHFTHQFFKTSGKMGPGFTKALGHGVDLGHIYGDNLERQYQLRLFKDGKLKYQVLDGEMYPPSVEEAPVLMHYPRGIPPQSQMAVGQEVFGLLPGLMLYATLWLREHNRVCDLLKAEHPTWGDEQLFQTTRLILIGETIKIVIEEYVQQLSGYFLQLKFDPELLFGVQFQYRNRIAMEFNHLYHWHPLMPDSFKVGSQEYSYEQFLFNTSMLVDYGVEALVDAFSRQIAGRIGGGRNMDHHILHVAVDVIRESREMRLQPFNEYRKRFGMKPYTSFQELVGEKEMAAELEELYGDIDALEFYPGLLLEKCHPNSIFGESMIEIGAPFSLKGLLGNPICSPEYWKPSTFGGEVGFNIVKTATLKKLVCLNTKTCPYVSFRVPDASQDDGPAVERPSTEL

[4] = target: T2, human recombinant COX-2 (Homo sapiens, UniProt P35354); assay: COX (human) Inhibitor Screening Assay kit (EIA), COX-2
T2 sequence (P35354 18-604): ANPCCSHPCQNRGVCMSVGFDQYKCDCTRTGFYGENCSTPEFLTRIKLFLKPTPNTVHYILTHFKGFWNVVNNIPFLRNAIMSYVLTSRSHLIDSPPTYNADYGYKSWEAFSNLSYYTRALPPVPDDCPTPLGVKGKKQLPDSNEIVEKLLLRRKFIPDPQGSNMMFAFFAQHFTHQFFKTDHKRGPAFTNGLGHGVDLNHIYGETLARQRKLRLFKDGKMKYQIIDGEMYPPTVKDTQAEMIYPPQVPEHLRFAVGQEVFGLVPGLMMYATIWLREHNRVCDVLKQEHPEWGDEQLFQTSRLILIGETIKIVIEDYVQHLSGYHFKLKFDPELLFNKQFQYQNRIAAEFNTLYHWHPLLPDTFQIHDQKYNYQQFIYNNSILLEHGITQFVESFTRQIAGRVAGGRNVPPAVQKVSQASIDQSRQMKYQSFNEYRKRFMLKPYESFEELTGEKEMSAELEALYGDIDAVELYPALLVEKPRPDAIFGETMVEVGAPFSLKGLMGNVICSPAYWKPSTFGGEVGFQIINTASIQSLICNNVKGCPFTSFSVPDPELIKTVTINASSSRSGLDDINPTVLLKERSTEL

[5] = test system: ovine COX-1; set-up: method as in PMID 25074039; conditions: ovine COX-1/COX-2 assay kit; cited from earlier work
[6] = test system: ovine COX-2; set-up: method as in PMID 25074039; conditions: ovine COX-1/COX-2 assay kit; cited from earlier work
[7] = target: T1, human recombinant COX-1; set-up: purchased Cayman Chemical Company 701230; conditions: human COX-1/COX-2 assay kit; cited from earlier work
[8] = target: T2, human recombinant COX-2; set-up: purchased Cayman Chemical Company 701230; conditions: cited from earlier work
[9] = Plasma protein binding by ultrafiltration, rat plasma; assay type: in vitro ADME
Experimental: (§1) The ultrafiltration method was used to estimate the protein-free fraction of [^18F]F-IV and [^11C]MPbP in human and rat plasma. Equal volumes (500 μL) of plasma or PBS (control) were mixed with the formulated solution of radioligand (5 MBq,50μL) and incubated at 37 °C for 15 min. After incubation, aliquots of mixture (200 µL) were transferred to the tubes for ultrafiltration (Amicon 3K; Merck) and centrifuged at 7000 g for 15 min. Equal aliquots (20 μL) of ultrafiltrate (Cfree) and plasma (Ctotal) were measured with γ-counter. The obtained data were corrected for the radioligand binding to the filter membrane. Filtrations were performed in duplicate. The unbound (free) fraction of the radioligand was calculated as fu(%) = Cfree/Ctotal × 100%.

[10] = Plasma protein binding by ultrafiltration, human plasma; assay type: in vitro ADME
Experimental: as §1

[11] = set-up: method as in doi:10.1002/slct.201904788; conditions: all examined organs and brain regions; cited from earlier work
[12] = logD7.4 determination, shake-flask method; assay type: physicochemical; conditions: 1-octanol/phosphate buffer pH 7.4, n = 6; read-out: lipophilicity (logD7.4)
Experimental: The partition coefficient of [^18F]F-IV (log D7.4) was determined by the shake-flask method for measuring the distribution of radioactivity between 1-octanol and phosphate buffer pH 7.4. Into a tube containing 10 µL of [^18F]F-IV (~1 MBq), 1.5 mL of pre-saturated 1-octanol and 1.5 mL of phosphate buffer were added and vortexed for 15 min. Then, the tube was centrifuged at 3000 g for 5 min to ensure complete separation of the phases. Then, aliquots of 500 μL were taken from each phase into separate tubes and the radioactivity was measured in a γ-counter. The measurements were performed in triplicate. The log D7.4 value was calculated as follows: log (counts per min in 1-octanol/ counts per min in PBS) for five independent experiments.

[13] = Ex vivo biodistribution in intact, LPS-treated and celecoxib-blocked rats; set-up: species or system Wistar rats
Experimental: Ex vivo biodistribution was intended as a preliminary assessment of the BBB permeability and overall distribution of [^18F]F-IV in LPS-treated and intact Wistar rats. [^18F]F-IV uptake by tissue was expressed as %ID/g (dose administered per gram of tissue). […] The radioligand seems to readily penetrate the BBB, as evidenced by the high initial rate of brain uptake with a peak value of 2.21 ± 0.64 and 2.09 ± 0.65 (%ID/g) in the pons and medulla, respectively, at 10 min post-injection, (Figure 6A). […] The excretion pathway was through the kidneys, and 60 min after injection there was no obvious difference in [^18F]F-IV uptake values between tissues. The lack of significant specific accumulation of radioactivity in the brain, heart, lungs, and kidneys most likely reflects the low baseline level of COX-2 expression in these organs in healthy animals. It should be noted that relatively high initial levels of radioactivity in the blood pool persisted even 120 min after injection of [^18F]F-IV (0.99 ± 0.17 vs. 1.35 ± 0.06%ID/g). This was the main difference in the distribution of [^18F]F-IV and the previously reported [^11C]MPbP in organs and tissues of intact rats.
Ex vivo radioligand biodistribution was performed by direct radiometry of organs and tissue samples of Wistar rats. Each rat was injected with (12 ± 3) MBq (volume ≤ 0.2 mL) of [^18F]F-IV through the tail vein under anesthetic conditions. Control rats were sacrificed at 10 (n = 3), 30 (n = 3), 60 (n = 3), and 120 (n = 3) min after injection. Twenty-four hours prior to ex vivo biodistribution studies, 6 rats received an intraperitoneal (i.p.) injection of LPS (2 mg/kg) from Escherichia coli (O111: B4) or saline (1 mL/kg).
Blood samples and organs of interest, namely, the brain (cerebral cortex, cerebellum, medulla, and pons), thymus, heart, lung, spleen, kidney, liver, bladder, and muscle, were removed and weighed. The radioactivity in each tissue sample was measured by a γ-counter to calculate the percentage of injected dose per gram of tissue (%ID/g). Data were provided as mean ± SEM values.

[14] = Plasma-stability study (radio-HPLC); assay type: in vitro ADME; conditions: 37 °C, up to 60 min
Experimental: The stability of [^18F]F-IV was investigated in human plasma at 37 °C in the range from 0 to 60 min according to a modified protocol. Phosphate-buffered saline (PBS, 0.15 M, pH 7.4) was used as a control. [^18F]F-IV formulated solution (10 µL, ~1 MBq) was added to tubes with PBS (300 µL) and human plasma (300 µL). The mixture was vortexed and incubated at 37 °C. An aliquot of 100 µL from the sample was taken at different time points (0, 10, 20, 40, and 60 min) and mixed with 100 µL ice-cooled acetonitrile and centrifuged (3 min, 4500× g). The supernatants were analyzed by radio-HPLC using XBridge C18 analytical column.

[15] = rat plasma, read-out: PPB level, rats (converted)
[16] = unbound (free) fraction, 37 °C, n = 3, read-out: fu in Rat Plasma
[17] = human plasma, read-out: PPB level, humans (converted)
[18] = unbound (free) fraction, 37 °C, n = 6, read-out: fu in Human Plasma
[19] = %ID organ/%ID blood, 60 min post-injection
[20] = healthy (intact) rats, 10 min post-injection

Compound: Cc1ccc(-c2cc(C(F)(F)F)nn2-c2ccc(S(N)(=O)=O)cc2)cc1 [Celecoxib, celecoxib, reference compound]
- serum levels of IL-6 and TNF-α [1]: reduced them to levels seen in intact animals
- reduction of TBARS levels in brain [2]: little or no effect

Compound: CCCc1ccc(O)c(-c2ccc(OCCF)c(OC)c2)c1 [F-III, 4′-(2-fluoroethoxy)-3′-methoxy-5-propyl-2-hydroxy-1,1′-biphenyl]
- reduction of TBARS levels in brain [2]: 116%

- IC50 [3]: 4.61 µM
- IC50 [4]: 0.09 µM
- SI (Selectivity Index) ([4]; SI = COX-1 IC50/COX-2 IC50, human assay kit, this study): 48
Compound: CCCc1ccc(O)c(-c2ccc(OCCF)cc2)c1 [F-IV, 4′-(2-fluoroethoxy)-2-hydroxy-5-propyl-1,1′-biphenyl]
- serum levels of IL-6 and TNF-α [1]: comparable or even superior to that of celecoxib

Compound: C=CCc1ccc(O)c(-c2ccc(OC)c(CC=C)c2)c1 [MH, 4′-O-methylhonokiol]
- IC50 [5]: 2.4 µM
- IC50 [6]: 0.06 µM

Compound: CCCc1ccc(O)c(-c2ccc(OC)cc2)c1 [MPbP]
- IC50 [7]: 2.53 µM
- SI (Selectivity Index) ([8]; SI = COX-1 IC50/COX-2 IC50, human assay kit): 18
- IC50 ([8]; human COX-1/COX-2 assay kit): 0.14 µM
- experimental ddG between MPbP and F-IV for COX-2 ([4]; from experimental IC50 values): 0.22 kcal/mol

- fraction unbound at 15 min, 9.1 MBq/mL [9, 15]: 0.08
- fraction unbound at 15 min, 9.1 MBq/mL [9, 16]: 0.0802 ± 0.0037
- fraction unbound at 15 min, 9.1 MBq/mL [10, 17]: 0.02
- fraction unbound at 15 min, 9.1 MBq/mL [10, 18]: 0.0188 ± 0.0013
Compound: CCCc1ccc(O)c(-c2ccc(O[11CH3])cc2)c1 [[^11C]MPbP, 4′-[^11C]methoxy-5-propyl-1,1′-biphenyl-2-ol, reference compound]
- uptake in LPS rats vs healthy rats [11]: up to 400%

- fraction unbound at 15 min, 9.1 MBq/mL [9, 15]: < 0.02
- fraction unbound at 15 min, 9.1 MBq/mL [9, 16]: 0.0201 ± 0.0026
- fraction unbound at 15 min, 9.1 MBq/mL [10, 17]: < 0.01
- fraction unbound at 15 min, 9.1 MBq/mL [10, 18]: 0.0019 ± 0.0005
- logD [12]: 3.3 ± 0.1
- increase in radioactivity in LPS animals vs controls, kidney [13, 19]: 16%
- increase in radioactivity in LPS animals vs controls, liver [13, 19]: 23%
- increase in radioactivity in LPS animals vs controls, lung [13, 19]: 12%
- increase in radioactivity in LPS animals vs controls, spleen [13, 19]: 20%
- increase in radioactivity in LPS animals vs controls, thymus [13, 19]: 20%
- increase in uptake in LPS-treated vs saline-injected rats, medulla [13, 19]: 16%
- increase in uptake in LPS-treated vs saline-injected rats, pons [13, 19]: 5%
- reduction in radioactivity by celecoxib blocking ([13]; LPS rats, celecoxib 10 mg/kg i.v. 30 min before radioligand, brain (pons and medulla), heart, lung, kidney): 20–32%
- brain uptake peak value, medulla [13, 20]: 2.09 ± 0.65 %ID/g
- brain uptake peak value, pons [13, 20]: 2.21 ± 0.64 %ID/g
- radioactivity in the blood pool ([13]; intact rats, 120 min after injection): 0.99 ± 0.17 %ID/g
- radioactivity in the blood pool, initial level ([13]; intact rats, initial (10 min) level): 1.35 ± 0.06 %ID/g
- radiochemical stability in human plasma [14]: 92%
Compound: CCCc1ccc(O)c(-c2ccc(OCC[18F])cc2)c1 [[^18F]F-IV, 4′-(2-[^18F]fluoroethoxy)-2-hydroxy-5-propyl-1,1′-biphenyl]
